Laboratory results as given in patent US4140770A, “Benzoylethers and processes for their production” (A. Nattermann & Cie. GmbH, priority 1976, dated 1979).
≈ marks a conversion by molar mass, not a printed value.

Tests used:
A.femoralis = experiment: Increase in peripheral vasodilation (A.femoralis), narcotized dog, planimetric evaluation; assay type: in vivo
From the text: 3.2 Increase in peripheral vasodilation (A.femoralis) in the case of the narcotized dog (with planimetric evaluation taking into account the duration of the effect).

Effect on blood pressure = assay type: in vivo
coronary = experiment: Increase in coronary vasodilation (Bretschneider catheter), narcotized dog, planimetric evaluation; assay type: in vivo
From the text: 3.3. Increase in coronary vasodilation (Bretschneider catheter) in the case of a narcotized dog (with planimetric evaluation taking into account the duration of the effect).

BaCl2-spasmus = experiment: Spasmolysis in situ of a guinea pig modified according to BROCK (against BaCl2-spasmus); assay type: in vivo
From the text: 2.2 Spasmolysis in situ of a guinea pig modified according to BROCK (against BaCl2 -spasmus)

[1] = tested on: intestine of the guinea pig (BaCl2-spasmus); experiment: Spasmolytic effect, MAGNUS intestine of the guinea pig (against BaCl2-spasmus); conditions: Cavia porcellus, read-out: ED50 spasmolytic effect
From the text: 2.1 MAGNUS intestine of the guinea pig (against BaCl2 -spasmus)

[2] = Acute toxicity (LD50 mouse); conditions: in vivo
[3] = Acute toxicity (LD50 rat); conditions: in vivo, iv
From the text: +according to KOMLOS and PETOCZ, 20 Arzneimittel-Forschung 1338 (1970)

rat = conditions: according to KOMLOS and PETOCZ (1970), cited from earlier work
mouse = conditions: according to KOMLOS and PETOCZ (1970); cited from earlier work

SMILES | Increase in peripheral vasodilation (A.femoralis) (A.femoralis; 3.16 mg/kg i.v.) | Increase in peripheral vasodilation (A.femoralis) (A.femoralis; 5.6 mg/kg i.v.) | Increase in peripheral vasodilation (A.femoralis) (A.femoralis; 10.0 mg/kg i.v.) | Effect on blood pressure (Effect on blood pressure; 3.16 mg/kg i.v.) | Effect on blood pressure (Effect on blood pressure; 5.6 mg/kg i.v.) | Effect on blood pressure (Effect on blood pressure; 10.0 mg/kg i.v.) | Increase in coronary vasodilation (coronary; 5.6 mg/kg i.v.) | inhibition (spasmolysis in situ) (BaCl2-spasmus; 5.6 mg/kg i.v.) | inhibition (spasmolysis in situ) (BaCl2-spasmus; 10.0 mg/kg i.v.) | inhibition (spasmolysis in situ) (BaCl2-spasmus; 17.8 mg/kg i.v.) | IC50 [1] | LD50 ([2]; iv, read-out: LD50 mouse i.v.) | LD50 ([2]; po, read-out: LD50 mouse p.o.) | further results
CCN(CC)CCOc1c(C)cc(C(=O)CC(c2ccccc2)c2ccccc2)cc1C [BC 58, 4-[2-(N,N-diethylamino)-ethoxy]-3,5-dimethyl-β,β-diphenylpropiophenone] | approx. 400 ml × min | approx. 800 ml × min | approx. 2,200 ml × min | approx. 30 mm Hg | approx. 30 mm Hg | approx. 40 mm Hg | approx. 680 ml × min | 55% | 67% | 88% | 0.044 µg/mL (≈ 0.102 µM) | 60 mg/kg | 1900 mg/kg | duration of the effect (peripheral vasodilation) (A.femoralis; versus papaverine, i.v.): longer duration of the effect; Increase in coronary vasodilation (coronary; 3.16 mg/kg i.v.): approx. 350 ml × min; LD50 [3]: 54 mg/kg
Cc1cc(C(=O)CC(c2ccccc2)c2ccccc2)cc(C)c1OCCN(C)C [BC 77, 4-[2-(N,N-dimethylamino)-ethoxy]-3,5-dimethyl-β,β-diphenylpropiophenone] | – | – | – | – | – | – | – | – | – | – | 0.79 µg/mL (≈ 1.97 µM) | – | – | –
Cc1cc(C(=O)CC(c2ccccc2)c2ccccc2)cc(C)c1OCCN(C(C)C)C(C)C [BC 79, 4-[2-(N,N-diisopropylamino)-ethoxy]-3,5-dimethyl-β,β-diphenylpropiophenone] | – | – | – | – | – | – | – | – | – | – | 0.28 µg/mL (≈ 0.612 µM) | – | – | –
CC[N+](C)(CC)CCOc1c(C)cc(C(=O)CC(c2ccccc2)c2ccccc2)cc1C [BC 96 a] | – | – | – | – | – | – | – | – | – | – | – | 7.93 mg/kg | 1280 mg/kg | –
CC[N+](CC)(CCOc1c(C)cc(C(=O)CC(c2ccccc2)c2ccccc2)cc1C)Cc1ccccc1 [BC 96 c] | – | – | – | – | – | – | – | – | – | – | – | 10 to 12 mg/kg | ~2000 mg/kg | –
COc1ccc(Cc2nccc3cc(OC)c(OC)cc23)cc1OC [Papaverine, reference compound] | approx. 100 ml × min | approx. 250 ml × min | approx. 180 ml × min | approx. 25 mm Hg | approx. 35 mm Hg | approx. 40 mm Hg | approx. 75 ml × min | 5% | 8% | 57% | 0.79 µg/mL (≈ 2.33 µM) | 44 mg/kg | – | LD50 rat i.v. (rat; i.v.): 18 mg/kg; LD50 rat p.o. (rat; p.o.): 325 mg/kg; LD50 mouse p.o. (mouse): 343 mg/kg
